Data: patent publication US11413360B2, “Dual mode radiotracer and—therapeutics” (priority 2017, dated 2022)
Read-outs that look alike come from different tables or passages of the source. One block for each compound: values may come before it.

Columns and labels:
[1] = cited from earlier work
LNCaP cells = test: Internalization of radiolabelled ligands into LNCaP cells; type: cell-based; conditions: 1 hour, % of reference ligand ([125I]I-BA)KuE
Description: Subsequent to the removal of the culture medium, the cells were washed once with 500 μL DMEM-F12 (5% BSA) and left to equilibrate for at least 15 min at 37° C. in 200 μL DMEM-F12 (5% BSA). Each well was treated with either 25 μL of either DMEM-F12 (5% BSA) or a 100 μM PMPA solution for blockade. […] The experiment was terminated by placing the 24-well plate on ice for 3 min and consecutive removal of the medium. Each well was rinsed with 250 μL HBSS and the fractions from these first two steps combined, representing the amount of free radioligand. Removal of surface bound activity was accomplished by incubation of the cells with 250 μL of ice-cold PMPA (10 μM in PBS) solution for 5 min and rinsed again with another 250 μL of ice-cold PBS. The internalized activity was determined by incubation of the cells in 250 μL 1 M NaOH and the combination with the fraction of a subsequent wash step with 250 μL 1.0 M NaOH. Each experiment (control and blockade) was performed in triplicate. Free, surface bound and internalized activity was quantified in a γ-counter. […] Data were corrected for non-specific internalization and normalized to the specific-internalization observed for the radioiodinated reference compound.

PSMA = target: T1, PSMA (Homo sapiens, UniProt Q04609); test: Determination of PSMA affinity (IC50), competition with ([125I]I-BA)KuE on LNCaP cells; type: binding; conditions: ([125I]I-BA)KuE 0.2 nM
T1 construct: endogenous in cells; host or cells: LNCaP cells
Description: After removal of the culture medium, the cells were treated once with 500 μL of HBSS (Hank's balanced salt solution, Biochrom, Berlin, Germany, with addition of 1% bovine serum albumin (BSA)) and left 15 min on ice for equilibration in 200 μL HBSS (1% BSA). […] Quantification of bound and free radioligand was accomplished in a γ-counter.

[2] = Octanol-water partition coefficient (log D) of radiolabelled ligands; type: physicochemical; conditions: n = 6
Description: Approximately 1 MBq of the labelled tracer was dissolved in 1 mL of a 1:1 mixture (by volumes) of phosphate buffered saline (PBS, pH 7.4) and n-octanol in an Eppendorf tube. After vigorous mixing of the suspension for 3 minutes at room temperature, the vial was centrifuged at 15000 g for 3 minutes (Biofuge 15, Heraus Sepatech, Osterode, Germany) and 100 μL aliquots of both layers were measured in a gamma counter. The experiment was repeated at least six times.

Human Serum Albumin [3] = target: T2, Human Serum Albumin (Homo sapiens, UniProt P02768); test: Literature HSA binding of reference substances (Yamazaki et al.) for HSA-column calibration; conditions: logarithmic K of human serum albumin binding
Description: The mobile phase (A: NH4OAc, 50 mM in water, pH 7 and B: isopropanol) was freshly prepared for each experiment and only used for one day. The column was kept at room temperature and each run was stopped after detection of the signal to reduce the acquisition time. All substances were dissolved in a 0.5 mg/ml concentration in 50% 2-propanol and 50% 50 mM pH 6.9 ammonium acetate buffer. […] All nine reference substances (see Table 1) were injected consecutively to establish a non-linear regression with OriginPro 2016G; see FIG. 1.
HSA literature value of human serum albumin binding in [%]; Log K HAS logarithmic K of human serum albumin binding.

Human Serum Albumin [4] = target: T2, Human Serum Albumin; conditions: literature value of human serum albumin binding; cited from earlier work
Human Serum Albumin [5] = target: T2, Human Serum Albumin; test: HSA binding on Chiralpak HSA column; type: in vitro ADME
[6] = pH 7.4, 68Ga-natF-L, n-octanol/PBS pH 7.4
[7] = IC50, natF-L (uncomplexed), 1 h, 4° C., mean ± SD
[8] = IC50, natGa-natF-L, 1 h, 4° C., mean ± SD
[9] = 68Ga-natF-L, 0.5 nM, 37° C., mean ± SD
[10] = n-octanol/PBS, pH 7.4, 177Lu-natF-L
[11] = natLu-natF-L, 1 h, 4° C., mean ± SD, read-out: IC50
[12] = 177Lu-natF-L, 0.5 nM, 37° C., mean ± SD
[13] = pH 7.4, 18F-L, n-octanol/PBS pH 7.4
[14] = 18F-L, 0.5 nM, 37° C., mean ± SD

T1 sequence (Q04609 whole entry): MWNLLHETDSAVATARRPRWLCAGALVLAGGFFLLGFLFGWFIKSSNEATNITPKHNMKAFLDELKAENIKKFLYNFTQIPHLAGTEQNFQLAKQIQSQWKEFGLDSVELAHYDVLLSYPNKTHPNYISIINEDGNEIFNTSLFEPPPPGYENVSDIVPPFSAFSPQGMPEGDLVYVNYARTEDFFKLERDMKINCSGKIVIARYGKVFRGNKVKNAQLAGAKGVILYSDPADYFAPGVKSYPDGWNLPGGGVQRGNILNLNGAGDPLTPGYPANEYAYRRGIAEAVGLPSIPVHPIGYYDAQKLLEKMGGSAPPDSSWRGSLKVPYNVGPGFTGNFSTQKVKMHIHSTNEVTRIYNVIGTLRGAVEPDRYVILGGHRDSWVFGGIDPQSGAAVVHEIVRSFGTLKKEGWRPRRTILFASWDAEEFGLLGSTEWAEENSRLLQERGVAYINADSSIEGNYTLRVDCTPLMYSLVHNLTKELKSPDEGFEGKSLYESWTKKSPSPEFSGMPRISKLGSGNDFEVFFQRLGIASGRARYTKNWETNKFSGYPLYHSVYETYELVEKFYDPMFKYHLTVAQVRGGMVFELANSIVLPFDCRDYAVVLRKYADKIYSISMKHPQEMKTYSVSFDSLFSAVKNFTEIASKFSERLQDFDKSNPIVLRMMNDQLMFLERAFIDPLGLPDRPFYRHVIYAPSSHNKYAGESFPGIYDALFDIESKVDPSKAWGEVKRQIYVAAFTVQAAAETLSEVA
T2 sequence (P02768 25-609): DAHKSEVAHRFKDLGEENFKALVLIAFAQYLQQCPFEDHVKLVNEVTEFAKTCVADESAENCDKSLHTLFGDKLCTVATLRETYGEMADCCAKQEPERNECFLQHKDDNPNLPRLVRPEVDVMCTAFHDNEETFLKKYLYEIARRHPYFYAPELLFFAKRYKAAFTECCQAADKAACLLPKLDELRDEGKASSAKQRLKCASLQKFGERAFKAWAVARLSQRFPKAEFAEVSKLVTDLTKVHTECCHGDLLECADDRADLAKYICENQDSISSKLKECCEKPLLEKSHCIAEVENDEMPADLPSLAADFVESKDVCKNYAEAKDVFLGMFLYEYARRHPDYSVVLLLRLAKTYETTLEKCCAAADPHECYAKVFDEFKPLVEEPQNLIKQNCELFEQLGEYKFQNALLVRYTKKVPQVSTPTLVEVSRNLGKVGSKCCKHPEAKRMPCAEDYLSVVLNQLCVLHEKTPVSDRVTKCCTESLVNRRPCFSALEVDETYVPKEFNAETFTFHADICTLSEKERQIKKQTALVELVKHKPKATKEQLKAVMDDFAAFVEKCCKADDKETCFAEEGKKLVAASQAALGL

Compound: SIFA-Asn(AcNH-β-Glc)-PEG-Tyr^3-octreotate
log P(ow) [1]: 0.96

Compound: O=C(O)CC[C@H](NC(=O)N[C@@H](CCCCNC(=O)c1ccc(F)nc1)C(=O)O)C(=O)O [DCFPyL, reference compound]
Internalization (LNCaP cells; references): DCFPyL 118 ± 5%

Compound: PSMA-1007 [reference compound]
IC50 (PSMA; references, read-out: IC50): 4.2 nM | Internalization (LNCaP cells; references): PSMA-1007 118 ± 4%

Compound: SIFA-Asn(AcNH-β-Glc)-Tyr^3-octreotate
log P(ow) [1]: 1.23

Compound: CC(C)(C)[Si](F)(c1ccc(C(=O)NC[C@@H](NC(=O)CCC(C(=O)O)N2CCN(CC(=O)O)CCN(CC(=O)O)CCN(CC(=O)O)CC2)C(=O)N[C@H](CCCCNC(=O)CCCCCCC(=O)NCCCC[C@H](NC(=O)N[C@@H](CCC(=O)O)C(=O)O)C(=O)O)C(=O)O)cc1)C(C)(C)C (some centres unmarked) [ligand 5, PSMA-SIFA1]
logD [2, 6]: -2.75 ± 0.07 | IC50 (PSMA; [7]): 6.4 ± 0.2 nM | IC50 (PSMA; [8]): 7.3 ± 0.2 nM | Internalization (LNCaP cells; [9]): 33.0 ± 2.1%

Compound: Oc1ccccc1 [Phenol]
Log K HSA (Human Serum Albumin [3]): −0.59 | Lit. HSA % (Human Serum Albumin [4]): 20.69%

Compound: CC(C)(C)[Si](F)(c1ccc(C(=O)NCC(NC(=O)CN2CCN(CC(=O)O)CCN(CC(=O)O)CCN(CC(=O)O)CC2)C(=O)NC(CCCCNC(=O)CCC(=O)NCCCC(NC(=O)CC[C@H](NC(=O)N[C@@H](CCC(=O)O)C(=O)O)C(=O)O)C(=O)O)C(=O)O)cc1)C(C)(C)C (some centres unmarked) [ligand 10]
HSA binding (Human Serum Albumin [5]; natLu-natF-L): 94.0% | logD [2, 10]: -3.59 ± 0.05 | IC50 (PSMA; [11]): 2.8 ± 0.7 nM | Internalization (LNCaP cells; [12]): 184.1 ± 16%

Compound: O=C(O)c1ccccc1 [Benzoic Acid]
Lit. HSA % (Human Serum Albumin [4]): 34.27%

Compound: CC(C)(C)[Si](F)(c1ccc(C(=O)NC[C@@H](C(=O)N[C@H](CCCCNC(=O)CCCCCCC(=O)NCCCC[C@H](NC(=O)N[C@@H](CCC(=O)O)C(=O)O)C(=O)O)C(=O)O)n2cc(CNC(=O)CCP(=O)(O)CN3CCN(CP(=O)(O)CCC(=O)O)CCN(CP(=O)(O)CCC(=O)O)CC3)nn2)cc1)C(C)(C)C [ligand 6, PSMA-SIFA2]
logD [2, 6]: -3 ± 0.09 | IC50 (PSMA; [7]): 8.5 ± 1.7 nM | IC50 (PSMA; [8]): 10.8 ± 2.5 nM | Internalization (LNCaP cells; [9]): 43.0 ± 3.4%

Compound: CC(C)(C)[Si](F)(c1ccc(C(=O)NC[C@@H](C(=O)N[C@H](CCCCNC(=O)CCC(=O)NCCC[C@@H](NC(=O)CC[C@H](NC(=O)N[C@@H](CCC(=O)O)C(=O)O)C(=O)O)C(=O)O)C(=O)O)n2cc(CNC(=O)CCP(=O)(O)CN3CCN(CP(=O)(O)CCC(=O)O)CCN(CP(=O)(O)CCC(=O)O)CC3)nn2)cc1)C(C)(C)C [ligand 9, PSMA-SIFA5]
HSA binding (Human Serum Albumin [5]; natGa-natF-L): 95.1% | logD [2, 13]: -2.23 ± 0.07 | logD [2, 6]: -3.26 ± 0.06 | IC50 (PSMA; [7]): 4.3 ± 0.2 nM | IC50 (PSMA; [8]): 4.5 ± 0.3 nM | Internalization (LNCaP cells; [14]): 211.6 ± 5.3% | Internalization (LNCaP cells; [9]): 176.9 ± 11.7%

Log K HSA (Human Serum Albumin [3]): 1.69
Compound: COc1ccc(Cl)cc1C(=O)NCCc1ccc(S(=O)(=O)NC(=O)NC2CCCCC2)cc1 [Glibenclamide]
Lit. HSA % (Human Serum Albumin [4]): 99.00%

Compound: CC(C)(C)[Si](F)(c1ccc(C(=O)N[C@H](CNC(=O)CCC(C(=O)O)N2CCN(CC(=O)O)CCN(CC(=O)O)CCN(CC(=O)O)CC2)C(=O)N[C@H](CCCCNC(=O)CCC(=O)NCCC[C@@H](NC(=O)CC[C@H](NC(=O)N[C@@H](CCC(=O)O)C(=O)O)C(=O)O)C(=O)O)C(=O)O)cc1)C(C)(C)C (some centres unmarked) [ligand 8, PSMA-SIFA4]
HSA binding (Human Serum Albumin [5]; natGa-natF-L): 96.5% | HSA binding (Human Serum Albumin [5]; natLu-natF-L): 97.7% | logD [2, 13]: -2.25 ± 0.07 | logD [2, 6]: -2.59 ± 0.04 | logD ([2]; pH 7.4, 177Lu-natF-L, n-octanol/PBS pH 7.4): -3.75 ± 0.06 | IC50 (PSMA; [7]): 2.5 ± 0.2 nM | IC50 (PSMA; [8]): 3.8 ± 0.7 nM | IC50 (PSMA; IC50, natLu-natF-L, 1 h, 4° C., mean ± SD): 3 ± 0.2 nM | Internalization (LNCaP cells; [14]): 130.3 ± 5.5% | Internalization (LNCaP cells; [9]): 98.2 ± 12.4% | Internalization (LNCaP cells; [12]): 165.9 ± 8.5%

Compound: CCCN(CCC)S(=O)(=O)c1ccc(C(=O)O)cc1 [Probenecid]
Lit. HSA % (Human Serum Albumin [4]): 95.00%

Compound: Nc1ccccc1 [Aniline]
Log K HSA (Human Serum Albumin [3]): −0.79 | Lit. HSA % (Human Serum Albumin [4]): 14.06%

Compound: CC(C)(C)[Si](F)(c1ccc(C(=O)NC(CNC(=O)CN2CCN(CC(=O)O)CCN(CC(=O)O)CCN(CC(=O)O)CC2)C(=O)NC(CCCCNC(=O)CCC(=O)NCCCC(NC(=O)CC[C@H](NC(=O)N[C@@H](CCC(=O)O)C(=O)O)C(=O)O)C(=O)O)C(=O)O)cc1)C(C)(C)C (some centres unmarked) [ligand 11]
HSA binding (Human Serum Albumin [5]; natLu-natF-L): 92.4% | logD [2, 10]: -3.62 ± 0.06 | IC50 (PSMA; [11]): 4.8 ± 0.7 nM | Internalization (LNCaP cells; [12]): 134.5 ± 18.5%
